Assay [1] has as its target Phosphatidylinositol 4,5-bisphosphate 3-kinase catalytic subunit alpha isoform (Mus musculus) (UniProt P42337). In words: Inhibition of mouse recombinant PI3Kalpha expressed in baculovirus-infected Sf21 cells at 100 uM.
Assay [2] has as its target T1, Phosphatidylinositol 4,5-bisphosphate 3-kinase catalytic subunit delta isoform (Homo sapiens) (UniProt O00329).
T1 sequence (whole entry): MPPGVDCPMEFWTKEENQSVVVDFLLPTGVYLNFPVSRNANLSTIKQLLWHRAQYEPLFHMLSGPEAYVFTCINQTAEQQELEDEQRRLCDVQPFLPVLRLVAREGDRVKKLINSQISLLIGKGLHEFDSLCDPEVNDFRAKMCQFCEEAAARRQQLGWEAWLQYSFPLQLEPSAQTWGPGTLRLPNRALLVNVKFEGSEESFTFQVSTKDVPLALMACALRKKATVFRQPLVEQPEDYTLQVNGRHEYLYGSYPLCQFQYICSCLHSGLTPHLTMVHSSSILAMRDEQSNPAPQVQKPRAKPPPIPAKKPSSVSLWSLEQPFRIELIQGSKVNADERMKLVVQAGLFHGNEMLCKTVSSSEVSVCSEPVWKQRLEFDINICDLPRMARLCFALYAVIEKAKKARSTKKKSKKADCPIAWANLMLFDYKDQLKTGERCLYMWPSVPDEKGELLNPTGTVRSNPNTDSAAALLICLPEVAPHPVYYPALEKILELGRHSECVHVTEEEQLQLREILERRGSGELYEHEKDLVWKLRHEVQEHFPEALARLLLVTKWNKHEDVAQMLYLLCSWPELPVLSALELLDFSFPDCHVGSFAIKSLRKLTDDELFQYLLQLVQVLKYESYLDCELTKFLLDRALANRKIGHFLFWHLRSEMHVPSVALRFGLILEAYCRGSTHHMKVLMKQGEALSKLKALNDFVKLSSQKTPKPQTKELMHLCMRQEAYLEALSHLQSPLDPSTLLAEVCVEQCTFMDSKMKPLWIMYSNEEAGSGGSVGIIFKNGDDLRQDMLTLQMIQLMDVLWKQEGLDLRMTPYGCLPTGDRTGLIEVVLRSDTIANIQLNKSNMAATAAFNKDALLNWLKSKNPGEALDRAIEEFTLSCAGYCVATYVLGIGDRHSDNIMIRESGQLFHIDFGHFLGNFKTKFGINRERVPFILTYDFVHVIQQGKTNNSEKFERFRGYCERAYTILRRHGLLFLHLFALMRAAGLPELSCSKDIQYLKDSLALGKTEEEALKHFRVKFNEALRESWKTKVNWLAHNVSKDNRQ
In words: Inhibition of recombinant PI3Kdelta expressed in baculovirus-infected Sf21 cells at 100 uM.

Assay [3] has as its target Phosphatidylinositol 4,5-bisphosphate 3-kinase catalytic subunit alpha isoform (Mus musculus, UniProt P42337). As to the kind of experiment: Inhibition of mouse recombinant PI3Kalpha expressed in baculovirus-infected Sf21 cells.
Assay [4] is described as follows: Inhibition of bovine recombinant PI3Kgamma expressed in baculovirus-infected Sf21 cells. The arrangement: species or system Bos taurus.
Assay [5] can be described thus: Inhibition of bovine recombinant PI3Kgamma expressed in baculovirus-infected Sf21 cells at 100 uM. The conditions noted are these: Bos taurus.
The target of assay [6] is T2, Phosphatidylinositol 4,5-bisphosphate 3-kinase catalytic subunit beta isoform (Homo sapiens, UniProt P42338). In words: Inhibition of human recombinant PI3Kbeta expressed in baculovirus-infected Sf21 cells at 100 uM.
Target sequence in this assay (P42338 whole entry, looked up, canonical isoform): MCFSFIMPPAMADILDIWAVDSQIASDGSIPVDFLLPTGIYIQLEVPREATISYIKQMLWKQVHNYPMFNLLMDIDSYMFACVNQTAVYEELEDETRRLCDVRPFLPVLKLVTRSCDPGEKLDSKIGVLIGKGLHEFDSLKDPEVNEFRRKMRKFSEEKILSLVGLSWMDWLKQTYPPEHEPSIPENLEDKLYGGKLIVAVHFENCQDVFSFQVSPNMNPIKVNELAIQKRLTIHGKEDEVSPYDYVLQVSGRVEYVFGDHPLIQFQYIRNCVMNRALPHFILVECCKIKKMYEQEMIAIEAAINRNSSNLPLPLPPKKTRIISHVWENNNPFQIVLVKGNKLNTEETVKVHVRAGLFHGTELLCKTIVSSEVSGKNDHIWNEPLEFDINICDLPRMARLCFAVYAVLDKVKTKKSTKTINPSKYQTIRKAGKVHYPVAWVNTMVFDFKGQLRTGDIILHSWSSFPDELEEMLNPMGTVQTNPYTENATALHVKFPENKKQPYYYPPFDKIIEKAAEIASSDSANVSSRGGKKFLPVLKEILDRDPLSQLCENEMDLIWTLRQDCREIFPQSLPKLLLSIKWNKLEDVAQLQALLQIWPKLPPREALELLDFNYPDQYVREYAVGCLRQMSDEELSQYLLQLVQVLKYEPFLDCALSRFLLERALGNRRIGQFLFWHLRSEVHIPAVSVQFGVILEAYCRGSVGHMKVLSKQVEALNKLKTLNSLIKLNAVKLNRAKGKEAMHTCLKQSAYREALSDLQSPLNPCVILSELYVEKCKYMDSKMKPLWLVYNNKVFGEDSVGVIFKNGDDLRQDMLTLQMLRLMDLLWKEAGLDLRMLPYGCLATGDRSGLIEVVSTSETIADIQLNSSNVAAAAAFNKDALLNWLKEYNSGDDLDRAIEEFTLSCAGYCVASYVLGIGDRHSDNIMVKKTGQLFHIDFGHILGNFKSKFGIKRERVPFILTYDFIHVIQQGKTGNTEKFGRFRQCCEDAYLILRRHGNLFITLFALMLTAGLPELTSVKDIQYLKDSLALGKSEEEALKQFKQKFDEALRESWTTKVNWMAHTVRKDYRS
Assay [7] deals with T3, Phosphatidylinositol 4,5-bisphosphate 3-kinase catalytic subunit delta isoform (Homo sapiens, UniProt O00329).
T3 sequence (O00329 whole entry): T1 sequence (whole entry)
As to the kind of experiment: Inhibition of recombinant PI3Kdelta expressed in baculovirus-infected Sf21 cells.

Assay [8] concerns the target T2, Phosphatidylinositol 4,5-bisphosphate 3-kinase catalytic subunit beta isoform. As to the kind of experiment: Inhibition of human recombinant PI3Kbeta expressed in baculovirus-infected Sf21 cells.
Target sequence in this assay (P42338 whole entry, canonical isoform): as the sequence (P42338 whole entry, looked up, canonical isoform) above
Assay [9] is described as follows: Selectivity for PI3Kgamma over PI3Kbeta.
A short description of assay [10]: Selectivity for PI3Kgamma over PI3Kalpha.
Assay [11] in a line: Selectivity for PI3Kgamma over PI3Kdelta.

Sequence of Phosphatidylinositol 4,5-bisphosphate 3-kinase catalytic subunit alpha isoform (Mus musculus) (P42337 whole entry, canonical isoform): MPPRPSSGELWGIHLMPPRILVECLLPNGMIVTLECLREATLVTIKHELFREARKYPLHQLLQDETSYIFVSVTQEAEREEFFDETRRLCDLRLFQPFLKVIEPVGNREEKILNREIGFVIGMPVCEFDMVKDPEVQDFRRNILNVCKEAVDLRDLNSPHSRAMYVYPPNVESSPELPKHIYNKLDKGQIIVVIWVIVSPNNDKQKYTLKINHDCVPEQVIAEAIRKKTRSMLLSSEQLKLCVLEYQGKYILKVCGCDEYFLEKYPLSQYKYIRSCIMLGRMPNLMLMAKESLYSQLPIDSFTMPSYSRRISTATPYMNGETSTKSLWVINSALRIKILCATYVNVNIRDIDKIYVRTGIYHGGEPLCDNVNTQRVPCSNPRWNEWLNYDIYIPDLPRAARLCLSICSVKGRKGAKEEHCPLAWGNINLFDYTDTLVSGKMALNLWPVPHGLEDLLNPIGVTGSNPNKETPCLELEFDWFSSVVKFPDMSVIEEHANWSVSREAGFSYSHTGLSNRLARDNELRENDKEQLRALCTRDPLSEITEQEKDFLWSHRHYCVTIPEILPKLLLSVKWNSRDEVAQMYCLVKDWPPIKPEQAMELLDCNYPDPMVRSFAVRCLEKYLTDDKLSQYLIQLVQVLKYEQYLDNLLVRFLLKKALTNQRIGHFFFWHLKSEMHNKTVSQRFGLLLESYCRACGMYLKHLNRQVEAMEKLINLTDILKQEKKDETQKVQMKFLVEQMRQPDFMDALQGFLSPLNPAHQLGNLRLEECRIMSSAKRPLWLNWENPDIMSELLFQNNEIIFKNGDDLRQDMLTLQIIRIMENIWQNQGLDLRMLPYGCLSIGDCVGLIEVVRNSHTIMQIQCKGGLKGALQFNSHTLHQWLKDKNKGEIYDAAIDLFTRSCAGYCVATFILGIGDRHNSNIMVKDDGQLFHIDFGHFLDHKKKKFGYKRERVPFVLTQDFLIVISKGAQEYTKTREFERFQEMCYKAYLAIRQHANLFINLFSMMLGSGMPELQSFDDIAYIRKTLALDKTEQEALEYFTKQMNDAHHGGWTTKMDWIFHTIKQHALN
Sequence of Phosphatidylinositol 4,5-bisphosphate 3-kinase catalytic subunit alpha isoform (P42337 whole entry, canonical isoform): as above

Usually inhibition stands for the share of the control response that was lost under treatment. As a reminder, the IC50 is the concentration that inhibits the measured activity by half. Take `COc1ccccc1-c1nc(-c2cc3cc(C)ccc3[nH]c2=O)no1`: the inhibition in [1], in assay [2], in [5] and in assay [6] was over 40% in each case. The values for the IC50 in assay [3] and in [4] were over 100 µM and 75 µM, respectively.
Consider `O=C(CCn1c(=O)oc2cc(Cl)ccc21)Nc1ccccc1`, for which the inhibition in [1], in assay [2], in [5] and in assay [6] was over 40% each time. For the same compound, the IC50 in assay [3] was 19 µM; in assay [4], 6 µM; in assay [7] it was over 100 µM; in assay [8], 12 µM.
`COC(=O)c1ccc(CSc2ncnc3sc(C)c(C)c23)o1`: the inhibition in [1], in assay [2], in [5] and in assay [6] was over 40% throughout. In addition, the IC50 in assay [3] was over 100 µM; in assay [4], 71 µM; in [7] it was over 100 µM; in assay [8], over 100 µM.
In the case of `O=c1oc2cc(O)ccc2cc1-c1nc2ccccc2s1`, the inhibition in [1], in assay [2], in [5] and in assay [6] was over 40% each time. Also, the IC50 in assay [3] was 3 µM; in [4], 12 µM; in assay [7], 4 µM; in assay [8] it was 14 µM.
Consider `Cc1ccc2cc3c(OC(=O)COc4ccccc4)nn(C)c3nc2c1`, for which the inhibition in assay [1], in assay [2], in [5] and in assay [6] was over 40% in each case. For the same compound, the concentration for half-maximal inhibition (IC50) in assay [3] is 38 µM; in assay [4], 16 µM; in [7], 47 µM; in assay [8], over 100 µM.
In the case of `COc1cccc(-c2nc(-c3cc4cc(OC)ccc4[nH]c3=O)no2)c1`, the inhibition in [1], in assay [2], in [5] and in assay [6] was over 40% in each case. The IC50 amounted to 0.9 µM in [3], 4 µM in assay [4], 0.9 µM in assay [7] and 3 µM in [8].
For `O=C1NC(=O)/C(=C/c2ccc3nccnc3c2)S1`, the Ratio in [9] was over 30; in assay [10] it was 7.5; in assay [11], over 30.
In the case of `O=c1cc(N2CCOCC2)oc2c(-c3ccccc3)cccc12` [LY-294002], the inhibition in [1], in [2], in [5] and in [6] was over 40% in each case.
For the compound `COc1nc(-c2ccccc2)ccc1-c1noc(-c2ccncc2)n1`, the inhibition in assay [1], in assay [2], in [5] and in [6] was over 40% in each case. In addition, the IC50 in assay [3] is 78 µM; in [4], over 100 µM; in [8], over 100 µM.
